In publication PMC6385854, “Structural insights reveal a recognition feature for tailoring hydrocarbon stapled-peptides against the eukaryotic translation initiation factor 4E protein” (Chemical Science, 2019):
Where two headings read alike, the source gives them in different places. Numbered stars: 1 amine (or outer) side, 2 acyl side, 3 side chain; on linkers, the order of the positions; unused ones are H or OH. Bridge positions count the residues as written; N and C are the ends. Square brackets hold non-standard residues; d marks the D form. Peptide text beside a SMILES is read from it. ξ: configuration not given here. ξαMeNle(6-ylidene) = CC(CCCC=[*:3])(N[*:1])C(=O)[*:2]; R5 = C=CCCC[C@@](C)(N)C(=O)O; S5 = C=CCCC[C@](C)(N)C(=O)O

Columns and labels:
eIF4E = settings: small molecule inhibitor of the eIF4E/eIF4G interaction; cited from earlier work
Source text: We have previously used structure-based rational design and optimization strategies to develop the first generation of hydrocarbon stapled-peptides against eIF4E.[20] These are the only compounds currently reported in the literature that are able to bind to the protein-binding interface of eIF4E with nanomolar affinity. […] Moreover, it was recently shown that 4EGI-1 binds to a non-canonical site on eIF4E and allosterically regulates the binding prop ... || The previously optimized 12mer stapled-peptide (sTIP-04: ^1KKRYSR*QLL*L^12)[20] (Fig. 1) was used as a template for the derivation of two different i, i + 4 hydrocarbon stapled-peptides: (i) (sTIP-05: ^1KKRYSR*QLL*F^12) with an L12F substitution at the C-terminus and, (ii) (sTIP-06: ^1RIIYSR*QLL*L^12) with an “RII^3” substitution at the N-terminus, based on the 4EBP protein epitope.[12] These derivatives were designed to incorporate different chemical features with the anticipation to induce favorable cellular activity. Both peptides were synthesized and their binding affinity for eIF4E was de ...

[1] = target: T1, Human recombinant eIF4E protein (Homo sapiens, UniProt P06730); assay: Surface plasmon resonance binding of stapled-peptides to immobilized eIF4E; settings: SPR; for kon: eIF4E (His tag or w/o tag) amine-coupled on CM5 chip, saturated with m7GTP, peptides 3 μM to 1.372 nM, 60 s injection, 120 s dissociation
T1 construct: V28-V217; made in house; host or cells: Escherichia coli BL21 (DE3)
Protocol: Human recombinant eIF4E protein with His tag (eIF4E-His) and without tag (eIF4E w/o tag) were separately immobilized on a CM5 sensor chip through amine coupling using the same protocol. Each flow cell of a CM5 sensor chip was first activated by a 7 min injection (10 μl min^–1) of freshly prepared 1 : 1 50 mM NHS : 200 mM EDC. Diluted eIF4E in NaAc (pH 5.0), with m^7GTP present in ≥2 : 1 ratio to saturate eIF4E, was injected over the sensor chip surface at a flow rate of 10 μl min^–1. The remaining active coupling sites were blocked with a 7 min injection of 1 M ethanolamine at 10 μl min^–1. The immobilization level is ∼2500 RU for eIF4E w/o tag and ∼5000 RU for eIF4E-His separately. Running buffer for immobilization was HBS-EP+ (10 mM HEPES, 150 mM NaCl, 3 mM EDTA, 0.05% surfactant P20).
Before measurement, the system was primed with assay running buffer HBS-EP+ (10 mM HEPES, 150 mM NaCl, 3 mM EDTA, 0.05% surfactant P20), with 1 mM DTT and 3% DMSO. Peptides were prepared by 3-fold dilution from high concentration to low concentration (3 μM to 1.372 nM). Peptides at increasing concentrations were injected over the chip surface for 60 s. The exposure was followed by a dissociation phase of 120 s. The flow rate was 30 μl min^–1. Surface regeneration was done using 2 M NaCl 30 s at 30 μl min^–1. Each reaction cycle ended with 50% DMSO extra wash. The solvent correction curve was setup by adding varying amounts of 100% DMSO to 1.03× running buffer to generate a range of DMSO solutions (2.000%, 2.286%, 2.571%, 2.857%, 3.143%, 3.429%, 3.714% and 4.000% respectively). After removing reference (blank buffer) signal and adding solvent correction, kinetics and/or steady-state parameters were calculated with Biacore T200 evaluation software ver. 3.0.

[2] = Biacore T200, HBS-EP+ with 1 mM DTT, 3% DMSO, mean ± SEM from at-least two independent experiments, SEM, read-out: k on
[3] = Biacore T200, eIF4E on CM5 chip, m7GTP, HBS-EP+ with 1 mM DTT, 3% DMSO, mean ± SEM from at-least two independent experiments, SEM, read-out: K D, binding affinity (kinetic KD) measured as a ratio of koff/kon
[4] = Biacore T200, eIF4E on CM5 chip, m7GTP, HBS-EP+ with 1 mM DTT, 3% DMSO, mean ± SEM from at-least two independent experiments, SEM, read-out: k off
[5] = mean ± SEM from at-least two independent experiments
[6] = mean ± SEM from at-least two independent experiments, SEM
[7] = Biacore T200, HBS-EP+ with 1 mM DTT, 3% DMSO, mean ± SEM from at-least two independent experiments, SEM
[8] = Biacore T200, eIF4E on CM5 chip, m7GTP, HBS-EP+ with 1 mM DTT, 3% DMSO, mean ± SEM from at-least two independent experiments, SEM
[9] = Biacore T200, eIF4E on CM5 chip, m7GTP, HBS-EP+ with 1 mM DTT, 3% DMSO, mean ± SEM from at-least two independent experiments, read-out: K D, binding affinity (kinetic KD) measured as a ratio of koff/kon

T1 sequence (P06730 28-217): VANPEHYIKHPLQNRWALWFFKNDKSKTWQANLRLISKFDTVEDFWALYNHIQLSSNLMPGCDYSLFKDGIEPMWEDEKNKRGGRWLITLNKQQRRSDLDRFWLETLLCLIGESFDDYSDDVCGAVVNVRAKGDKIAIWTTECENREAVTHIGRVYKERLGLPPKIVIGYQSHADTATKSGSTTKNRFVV

| Compound | kon [1, 2] [M⁻¹ s⁻¹] | Kd [1, 3] [nM] | koff [1, 4] [s⁻¹] | RT, Residence Time measured as 1/koff [1, 5] [s] | RT, Residence Time measured as 1/koff [1, 6] [s] | kon [1, 7] | K D, binding affinity (kinetic KD) measured as a ratio of koff/kon [1, 8] [nM] | koff [1, 8] | further results |
| --- | --- | --- | --- | --- | --- | --- | --- | --- | --- |
| O=C(O)C(Cc1ccccc1[N+](=O)[O-])=NNc1nc(-c2ccc(Cl)c(Cl)c2)cs1 (mixture of isomers) [Peptide 4EGI-1, 4EGI-1] | – | – | – | – | – | – | – | – | Affinity for eIF4E (eIF4E): micromolar range |
| O=C(O)c1ccc(N2C(=O)/C(=C\c3ccc(-c4ccc([N+](=O)[O-])cc4)o3)C=C2c2ccccc2)cc1 [Peptide 4E1RCat, 4E1RCat] | – | – | – | – | – | – | – | – | Affinity for eIF4E (eIF4E): micromolar range |
| CC(=O)N[C@@H](CCCCN)C(=O)N[C@@H](CCCCN)C(=O)N[C@@H](CCCNC(=N)N)C(=O)N[C@@H](Cc1ccc(O)cc1)C(=O)N[C@@H](CO)C(=O)N[C@@H](CCCNC(=N)N)C(=O)N[C@]1(C)CCCC=CCCC[C@](C)(C(=O)N[C@@H](Cc2ccccc2)C(N)=O)NC(=O)[C@H](CC(C)C)NC(=O)[C@H](CC(C)C)NC(=O)[C@H](CCC(N)=O)NC1=O [sTIP-05] (Ac-KKRYSR[R5]QLL[R5]F-NH2; staple 7-11) | 1.5e+07 | 6.6 ± 0.7 | 0.094 ± 8e-05 | 10 | 10.8 ± 0.9 | – | – | – | – |
| CC(=O)N[C@@H](CCCCN)C(=O)N[C@@H](CCCCN)C(=O)N[C@@H](CCCNC(=N)N)C(=O)N[C@@H](Cc1ccc(O)cc1)C(=O)N[C@@H](CO)C(=O)N[C@@H](CCCNC(=N)N)C(=O)N[C@@]1(C)CCCC=CCCC[C@@](C)(C(=O)N[C@@H](Cc2ccccc2)C(=O)N[C@@H](Cc2c[nH]c3ccccc23)C(N)=O)NC(=O)[C@H](CC(C)C)NC(=O)[C@H](CC(C)C)NC(=O)[C@H](CCC(N)=O)NC1=O [sTIP-07] (Ac-KKRYSR[S5]QLL[S5]FW-NH2; staple 7-11) | 650000 ± 3e+09 | 42.5 ± 0.5 | 0.028 ± 1e-05 | – | 36.3 ± 1.0 | – | – | – | – |
| CC(=O)N[C@@H](CCCCN)C(=O)N[C@@H](CCCCN)C(=O)N[C@@H](CCCNC(=N)N)C(=O)N[C@@H](Cc1ccc(O)cc1)C(=O)N[C@@H](CO)C(=O)N[C@@H](CCCNC(=N)N)C(=O)N[C@@]1(C)CCCC=CCCC[C@@](C)(C(=O)N[C@@H](Cc2ccccc2)C(=O)N[C@@H](CCCNC(=N)N)C(=O)N[C@@H](CCCNC(=N)N)C(=O)N[C@@H](CCCNC(=N)N)C(N)=O)NC(=O)[C@H](CC(C)C)NC(=O)[C@H](CC(C)C)NC(=O)[C@H](CCC(N)=O)NC1=O [sTIP-09] (Ac-KKRYSR[S5]QLL[S5]FRRR-NH2; staple 7-11) | 2.2e+06 ± 3e+11 | 7.8 ± 1.9 | 0.016 ± 3e-05 | 68 | 68.8 ± 13.8 | – | – | – | – |
| CC(=O)N[C@@H](CCCCN)C(=O)N[C@@H](CCCCN)C(=O)N[C@@H](CCCNC(=N)N)C(=O)N[C@@H](Cc1ccc(O)cc1)C(=O)N[C@@H](CO)C(=O)N[C@@H](CCCNC(=N)N)C(=O)N[C@@H](CCC(=O)O)C(=O)N[C@@H](CCC(N)=O)C(=O)N[C@@H](CC(C)C)C(=O)N[C@@H](CC(C)C)C(=O)N[C@@]1(C)CCCC=CCCC[C@@](C)(C(N)=O)NC(=O)[C@H](CCCNC(=N)N)NC(=O)[C@H](CCC(N)=O)NC(=O)[C@H](Cc2ccccc2)NC1=O [sTIP-10] (Ac-KKRYSREQLL[S5]FQR[S5]-NH2; staple 11-15) | 6.6e+06 ± 1e+11 | 4.3 ± 0.4 | 0.026 ± 5e-05 | 39 | 39.7 ± 3.1 | – | – | – | – |
| CC(=O)N[C@@H](CCCNC(=N)N)C(=O)N[C@@H](Cc1ccc(O)cc1)C(=O)N[C@@H](CO)C(=O)N[C@@H](CCCNC(=N)N)C(=O)NC1(C)CCCC=CCCCC(C)(C(=O)N[C@@H](Cc2ccccc2)C(N)=O)NC(=O)[C@H](CC(C)C)NC(=O)[C@H](CC(C)C)NC(=O)[C@H](CCC(N)=O)NC1=O (some centres unmarked) [sTIP-12] (Ac-RYSR[ξαMeNle(6-ylidene)]QLL[ξαMeNle(6-ylidene)]F-NH2; staple 5-9) | 420000 ± 1.9e+10 | 397 ± 131 | 0.14 ± 0.002 | – | 7.1 ± 1.0 | – | – | – | – |
| CC(=O)N[C@@H](Cc1ccc(O)cc1)C(=O)N[C@@H](CO)C(=O)N[C@@H](CCCNC(=N)N)C(=O)NC1(C)CCCC=CCCCC(C)(C(=O)N[C@@H](Cc2ccccc2)C(N)=O)NC(=O)[C@H](CC(C)C)NC(=O)[C@H](CC(C)C)NC(=O)[C@H](CCC(N)=O)NC1=O (some centres unmarked) [sTIP-13] (Ac-YSR[ξαMeNle(6-ylidene)]QLL[ξαMeNle(6-ylidene)]F-NH2; staple 4-8) | – | – | – | – | – | – | – | – | Kd ([1]; Binding affinity estimated (micromolar range), range over two independent experiments): 4000 to 36000 nM; Kd ([1]; sensogram traces Fig. S2 E, F, experiment 1, read-out: Binding affinity estimated, first of two independent SPR experiments): 4000 nM; Kd ([1]; sensogram traces Fig. S2 E, F, experiment 2, read-out: Binding affinity estimated, second of two independent SPR experiments): 36000 nM |
| CC(=O)N[C@@H](CCCNC(=N)N)C(=O)N[C@@H](Cc1ccc(O)cc1)C(=O)N[C@@H](CO)C(=O)N[C@@H](CCCNC(=N)N)C(=O)N[C@@]1(C)CCCC=CCCC[C@@](C)(C(=O)N[C@@H](CC(C)C)C(=O)N[C@@H](Cc2ccccc2)C(=O)N[C@@H](CCCNC(=N)N)C(N)=O)NC(=O)[C@H](CC(C)C)NC(=O)[C@H](CC(C)C)NC(=O)[C@H](CCC(N)=O)NC1=O [sTIP-14] (Ac-RYSR[S5]QLL[S5]LFR-NH2; staple 5-9) | 340000 ± 1.6e+10 | 195 ± 49.7 | 0.058 ± 0.00014 | – | 18.3 ± 4.5 | – | – | – | Improvement in KD over sTIP-12 ([1]; relative to sTIP-12): 2 fold; Reduction in rate of dissociation (koff) over sTIP-12 ([1]; relative to sTIP-12): 2 fold |
| Ac-KRYSR*QLL*F-NH2 (sidechain bridge or staple) [sTIP-11, sTIP-05 with K1 deleted] | – | – | – | – | 2.3 ± 0.6 | 2.3 ± 0.9 × 10^7 M^–1 s^–1 | 21.9 ± 3.8 | 4.6 ± 1.2 × 10^–1 s^–1 | Binding to eIF4E in words (effect of N-terminal deletion from sTIP-05) ([1]; sequential deletion of the 1KKR3 sequence): little effect on binding |
| Ac-RIIYSR*QLL*L&-NH2 (sidechain bridge or staple) [sTIP-08, 13mer stapled-peptide, sTIP-06 extended with Lys(ButPhI)] | – | – | – | – | 35.5 ± 1.3 | 6.2 ± 0.2 × 10^5 M^–1 s^–1 | 45.2 ± 0.6 | 2.8 ± 0.1 × 10^–2 s^–1 | – |
| Ac-RIIYSR*QLL*L-NH2 (sidechain bridge or staple) [sTIP-06] | – | – | – | 6 | 6.0 ± 2.4 | 2.7 ± 0.7 × 10^8 M^–1 s^–1 | 0.8 ± 0.1 | 2.2 ± 0.8 × 10^–1 s^–1 | Kd [1, 9]: 0.8 nM |
| Ac-RYSREQLL*FQR*-NH2 (sidechain bridge or staple) [sTIP-15] | – | – | – | – | 6.7 ± 4.1 | 4.2 ± 2.3 × 10^6 M^–1 s^–1 | 54.8 ± 6.4 | 2.4 ± 1.5 × 10^–1 s^–1 | Kd [1, 9]: 54 nM; Improvement in KD over sTIP-12 ([1]; relative to sTIP-12): 7 fold; Improvement in rate of association (kon) over sTIP-12 ([1]; relative to sTIP-12): 10 fold |
